Source: publication PMC7169845, “Synthesis and Bioactivity of Phthalimide Analogs as Potential Drugs to Treat Schistosomiasis, a Neglected Disease of Poverty” (Pharmaceuticals, 2020)

Row | SMILES | melting point [°C]
1 | CC(c1nc2ccccc2n1Cc1cn(Cc2ccccc2)nn1)N1C(=O)c2ccccc2C1=O (stereo not shown) [6e’, 2-(1-(1-((1-Benzyl-1H-1,2,3-triazol-4-yl)methyl)-1H-benzo[d]imidazol-2-yl)ethyl)isoindoline-1,3-dione] | 181 to 183
2 | Cc1ccc2c(c1)C(=O)N(C(C)c1nc3ccccc3n1Cc1c[nH]nn1)C2=O (stereo not shown) [6k’, 2-(1-(1-((1H-1,2,3-Triazol-4-yl)methyl)-1H-benzo[d]imidazol-2-yl)ethyl)-5-methylisoindoline-1,3-dione] | 100 to 102
3 | CC(c1nc2ccccc2n1Cc1cn(-c2c(F)cccc2F)nn1)N1C(=O)c2ccccc2C1=O (stereo not shown) [6f’, 2-(1-(1-((1-(2,6-Difluorophenyl)-1H-1,2,3-triazol-4-yl)methyl)-1H-benzo[d]imidazol-2-yl)ethyl)isoindoline-1,3-dione] | 94 to 96
4 | Cc1ccc2c(c1)C(=O)N(C(C)c1nc3ccccc3n1Cc1cn(Cc3ccccc3)nn1)C2=O (stereo not shown) [6m’, 2-(1-(1-((1-Benzyl-1H-1,2,3-triazol-4-yl)methyl)-1H-benzo[d]imidazol-2-yl)ethyl)-5-methylisoindoline-1,3-dione] | 142 to 144
5 | CC(C)C(c1nc2ccccc2n1Cc1cn(-c2ccc(F)cc2F)nn1)N1C(=O)c2ccccc2C1=O (stereo not shown) [6t’, 2-(1-(1-((1-(2,4-Difluorophenyl)-1H-1,2,3-triazol-4-yl)methyl)-1H-benzo[d]imidazol-2-yl)-2-methylpropyl)isoindoline-1,3-dione] | 100 to 102
6 | CC(c1nc2ccccc2n1Cc1c[nH]nn1)N1C(=O)c2ccccc2C1=O (stereo not shown) [6g’, 2-(1-(1-((1H-1,2,3-Triazol-4-yl)methyl)-1H-benzo[d]imidazol-2-yl)ethyl)isoindoline-1,3-dione] | 97 to 99
7 | Cc1ccc2c(c1)C(=O)N(C(C)c1nc3ccccc3n1Cc1cn(-c3ccccc3)nn1)C2=O (stereo not shown) [6l’, 5-Methyl-2-(1-(1-((1-phenyl-1H-1,2,3-triazol-4-yl)methyl)-1H-benzo[d]imidazol-2-yl)ethyl)isoindoline-1,3-dione] | 185 to 187
8 | Cc1ccc2c(c1)C(=O)N(C(C)c1nc3ccccc3n1Cc1cn(-c3ccc(F)cc3)nn1)C2=O (stereo not shown) [6h’, 2-(1-(1-((1-(4-Fluorophenyl)-1H-1,2,3-triazol-4-yl)methyl)-1H-benzo[d]imidazol-2-yl)ethyl)-5-methylisoindoline-1,3-dione] | 222 to 224
9 | CC(C)C(c1nc2ccccc2n1Cc1cn(-c2c(F)c(F)c(F)c(F)c2F)nn1)N1C(=O)c2ccccc2C1=O (stereo not shown) [6r’, 2-(2-Methyl-1-(1-((1-(perfluorophenyl)-1H-1,2,3-triazol-4-yl)methyl)-1H-benzo[d]imidazol-2-yl)propyl)isoindoline-1,3-dione] | 170 to 172
10 | Cc1ccc2c(c1)C(=O)N(C(C)c1nc3ccccc3n1Cc1cn(-c3ccc(F)cc3F)nn1)C2=O (stereo not shown) [6p’, 2-(1-(1-((1-(2,4-Difluorophenyl)-1H-1,2,3-triazol-4-yl)methyl)-1H-benzo[d]imidazol-2-yl)ethyl)-5-methylisoindoline-1,3-dione] | 206 to 208
11 | CC(c1nc2ccccc2n1Cc1cn(-c2ccccc2)nn1)N1C(=O)c2ccccc2C1=O (stereo not shown) [6a’, 2-(1-(1-((1-Phenyl-1H-1,2,3-triazol-4-yl)methyl)-1H-benzo[d]imidazol-2-yl)ethyl)isoindoline-1,3-dione] | 187 to 189
12 | Cc1ccc2c(c1)C(=O)N(C(C)c1nc3ccccc3n1Cc1cn(-c3ccncc3)nn1)C2=O (stereo not shown) [6n’, 5-Methyl-2-(1-(1-((1-(pyridin-4-yl)-1H-1,2,3-triazol-4-yl)methyl)-1H-benzo[d]imidazol-2-yl)ethyl)isoindoline-1,3-dione] | 236 to 238
13 | CC(c1nc2ccccc2n1Cc1cn(-c2ccc(F)cc2F)nn1)N1C(=O)c2ccccc2C1=O (stereo not shown) [6d’, 2-(1-(1-((1-(2,4-Difluorophenyl)-1H-1,2,3-triazol-4-yl)methyl)-1H-benzo[d]imidazol-2-yl)ethyl)isoindoline-1,3-dione] | 195 to 197
14 | CC(c1nc2ccccc2n1Cc1cn(-c2ccccc2F)nn1)N1C(=O)c2ccccc2C1=O (stereo not shown) [6c’, 2-(1-(1-((1-(2-Fluorophenyl)-1H-1,2,3-triazol-4-yl)methyl)-1H-benzo[d]imidazol-2-yl)ethyl)isoindoline-1,3-dione] | 186 to 188
15 | Cc1ccc(-n2cc(Cn3c(C(C)N4C(=O)c5ccc(C)cc5C4=O)nc4ccccc43)nn2)cc1 (stereo not shown) [6i’, 5-Methyl-2-(1-(1-((1-(p-tolyl)-1H-1,2,3-triazol-4-yl)methyl)-1H-benzo[d]imidazol-2-yl)ethyl)isoindoline-1,3-dione] | 216 to 218
16 | CC(c1nc2ccccc2n1Cc1cn(-c2c(F)c(F)c(F)c(F)c2F)nn1)N1C(=O)c2ccccc2C1=O (stereo not shown) [6b’, 2-(1-(1-((1-(Perfluorophenyl)-1H-1,2,3-triazol-4-yl)methyl)-1H-benzo[d]imidazol-2-yl)ethyl)isoindoline-1,3-dione] | 215 to 217

Next, values leading:

Row | melting point [°C] | SMILES
17 | 101 to 103 | COc1ccc(-n2cc(Cn3c(C(CC(C)C)N4C(=O)c5ccc(C)cc5C4=O)nc4ccccc43)nn2)cc1 (stereo not shown) [6h, 2-(1-(1-((1-(4-Methoxyphenyl)-1H-1,2,3-triazol-4-yl)methyl)-1H-benzo[d]imidazol-2-yl)-3-methylbutyl)-5-methylisoindoline-1,3-dione]
18 | 150 to 152 | Cc1ccc2c(c1)C(=O)N(C(CC(C)C)c1nc3ccccc3n1Cc1c[nH]nn1)C2=O (stereo not shown) [6c, 2-(1-(1-((1H-1,2,3-Triazol-4-yl)methyl)-1H-benzo[d]imidazol-2-yl)-3-methylbutyl)-5-methylisoindoline-1,3-dione]
19 | 101 to 103 | CCC(C)C(c1nc2ccccc2n1Cc1cn(-c2ccncc2)nn1)N1C(=O)c2ccccc2C1=O (stereo not shown) [6u, 2-(2-Methyl-1-(1-((1-(pyridin-4-yl)-1H-1,2,3-triazol-4-yl)methyl)-1H-benzo[d]imidazol-2-yl)butyl)isoindoline-1,3-dione]
20 | 160 to 162 | Cc1ccc(-n2cc(Cn3c(C(CC(C)C)N4C(=O)c5ccc(C)cc5C4=O)nc4ccccc43)nn2)cc1 (stereo not shown) [6b, 5-Methyl-2-(3-methyl-1-(1-((1-(p-tolyl)-1H-1,2,3-triazol-4-yl)methyl)-1H-benzo[d]imidazol-2-yl)butyl)isoindoline-1,3-dione]
21 | 218 to 220 | Cc1ccc2c(c1)C(=O)N(C(CC(C)C)c1nc3ccccc3n1Cc1cn(-c3ccc(C(F)(F)F)cc3)nn1)C2=O (stereo not shown) [6e, 5-Methyl-2-(3-methyl-1-(1-((1-(4-(trifluoromethyl)phenyl)-1H-1,2,3-triazol-4-yl)methyl)-1H-benzo[d]imidazol-2-yl)butyl)isoindoline-1,3-dione]
22 | 89 to 91 | CCC(C)C(c1nc2ccccc2n1Cc1cn(-c2ccc(F)cc2F)nn1)N1C(=O)c2ccc(C)cc2C1=O (stereo not shown) [6r, 2-(1-(1-((1-(2,4-Difluorophenyl)-1H-1,2,3-triazol-4-yl)methyl)-1H-benzo[d]imidazol-2-yl)-2-methylbutyl)-5-methylisoindoline-1,3-dione]
23 | 67 to 69 | Cc1ccc2c(c1)C(=O)N(C(CC(C)C)c1nc3ccccc3n1Cc1cn(-c3ccccc3)nn1)C2=O (stereo not shown) [6g, 5-Methyl-2-(3-methyl-1-(1-((1-phenyl-1H-1,2,3-triazol-4-yl)methyl)-1H-benzo[d]imidazol-2-yl)butyl)isoindoline-1,3-dione]
24 | 126 to 128 | CC(C)CC(c1nc2ccccc2n1Cc1cn(-c2ccc(F)cc2F)nn1)N1C(=O)c2ccccc2C1=O (stereo not shown) [6o, 2-(1-(1-((1-(2,4-Difluorophenyl)-1H-1,2,3-triazol-4-yl)methyl)-1H-benzo[d]imidazol-2-yl)-3-methylbutyl)isoindoline-1,3-dione]
25 | 100 to 102 | CC(C)CC(c1nc2ccccc2n1Cc1cn(-c2c(F)c(F)c(F)c(F)c2F)nn1)N1C(=O)c2ccccc2C1=O (stereo not shown) [6l, 2-(3-Methyl-1-(1-((1-(perfluorophenyl)-1H-1,2,3-triazol-4-yl)methyl)-1H-benzo[d]imidazol-2-yl)butyl)isoindoline-1,3-dione]
26 | 216 to 218 | CC(C)CC(c1nc2ccccc2n1Cc1cn(-c2ccc(C(F)(F)F)cc2)nn1)N1C(=O)c2ccccc2C1=O (stereo not shown) [6m, 2-(3-Methyl-1-(1-((1-(4-(trifluoromethyl)phenyl)-1H-1,2,3-triazol-4-yl)methyl)-1H-benzo[d]imidazol-2-yl)butyl)isoindoline-1,3-dione]
27 | 198 to 200 | CC(C)CC(c1nc2ccccc2n1Cc1cn(-c2c(F)cccc2F)nn1)N1C(=O)c2ccccc2C1=O (stereo not shown) [6p, 2-(1-(1-((1-(2,6-Difluorophenyl)-1H-1,2,3-triazol-4-yl)methyl)-1H-benzo[d]imidazol-2-yl)-3-methylbutyl)isoindoline-1,3-dione]
28 | 208 to 210 | Cc1ccc2c(c1)C(=O)N(C(CC(C)C)c1nc3ccccc3n1Cc1cn(-c3ccc(F)cc3)nn1)C2=O (stereo not shown) [6a, 2-(1-(1-((1-(4-Fluorophenyl)-1H-1,2,3-triazol-4-yl)methyl)-1H-benzo[d]imidazol-2-yl)-3-methylbutyl)-5-methylisoindoline-1,3-dione]
29 | 142 to 144 | Cc1ccc2c(c1)C(=O)N(C(CC(C)C)c1nc3ccccc3n1Cc1cn(Cc3ccccc3)nn1)C2=O (stereo not shown) [6f, 2-(1-(1-((1-Benzyl-1H-1,2,3-triazol-4-yl)methyl)-1H-benzo[d]imidazol-2-yl)-3-methylbutyl)-5-methylisoindoline-1,3-dione]
30 | 128 to 130 | Cc1ccc2c(c1)C(=O)N(C(CC(C)C)c1nc3ccccc3n1Cc1cn(-c3c(F)c(F)c(F)c(F)c3F)nn1)C2=O (stereo not shown) [6d, 5-Methyl-2-(3-methyl-1-(1-((1-(perfluorophenyl)-1H-1,2,3-triazol-4-yl)methyl)-1H-benzo[d]imidazol-2-yl)butyl)isoindoline-1,3-dione]
31 | 72 to 74 | Cc1ccc2c(c1)C(=O)N(C(CC(C)C)c1nc3ccccc3n1Cc1cn(-c3ccc(F)cc3F)nn1)C2=O (stereo not shown) [6j, 2-(1-(1-((1-(2,4-Difluorophenyl)-1H-1,2,3-triazol-4-yl)methyl)-1H-benzo[d]imidazol-2-yl)-3-methylbutyl)-5-methylisoindoline-1,3-dione]
